Results from paper PMC11345841, “Exploring 2-Sulfonylpyrimidine Warheads as Acrylamide Surrogates for Targeted Covalent Inhibition: A BTK Story” (Journal of Medicinal Chemistry, 2024).
Like-named read-outs stand apart in the source and are kept apart here.

Experiments:
FLT3(ITD) = experiment: KINOMEscan ScanTK; type: binding
[1] = target: T1, ABL1(E255K)-phosphorylated (Homo sapiens, UniProt P00519, E255K); experiment: KINOMEscan ScanTK; type: binding
T1 construct: purchased Eurofins DiscoverX KINOMEscan (scanTK)

VEGFR2 = target: T2, VEGFR2 (Homo sapiens, UniProt P35968); experiment: KINOMEscan ScanTK; type: binding
T2 construct: purchased Eurofins DiscoverX KINOMEscan (scanTK)

INSR = target: T3, INSR (Homo sapiens, UniProt P06213); experiment: KINOMEscan ScanTK; type: binding
T3 construct: purchased Eurofins DiscoverX KINOMEscan (scanTK)
T3 sequence (P06213 28-1382): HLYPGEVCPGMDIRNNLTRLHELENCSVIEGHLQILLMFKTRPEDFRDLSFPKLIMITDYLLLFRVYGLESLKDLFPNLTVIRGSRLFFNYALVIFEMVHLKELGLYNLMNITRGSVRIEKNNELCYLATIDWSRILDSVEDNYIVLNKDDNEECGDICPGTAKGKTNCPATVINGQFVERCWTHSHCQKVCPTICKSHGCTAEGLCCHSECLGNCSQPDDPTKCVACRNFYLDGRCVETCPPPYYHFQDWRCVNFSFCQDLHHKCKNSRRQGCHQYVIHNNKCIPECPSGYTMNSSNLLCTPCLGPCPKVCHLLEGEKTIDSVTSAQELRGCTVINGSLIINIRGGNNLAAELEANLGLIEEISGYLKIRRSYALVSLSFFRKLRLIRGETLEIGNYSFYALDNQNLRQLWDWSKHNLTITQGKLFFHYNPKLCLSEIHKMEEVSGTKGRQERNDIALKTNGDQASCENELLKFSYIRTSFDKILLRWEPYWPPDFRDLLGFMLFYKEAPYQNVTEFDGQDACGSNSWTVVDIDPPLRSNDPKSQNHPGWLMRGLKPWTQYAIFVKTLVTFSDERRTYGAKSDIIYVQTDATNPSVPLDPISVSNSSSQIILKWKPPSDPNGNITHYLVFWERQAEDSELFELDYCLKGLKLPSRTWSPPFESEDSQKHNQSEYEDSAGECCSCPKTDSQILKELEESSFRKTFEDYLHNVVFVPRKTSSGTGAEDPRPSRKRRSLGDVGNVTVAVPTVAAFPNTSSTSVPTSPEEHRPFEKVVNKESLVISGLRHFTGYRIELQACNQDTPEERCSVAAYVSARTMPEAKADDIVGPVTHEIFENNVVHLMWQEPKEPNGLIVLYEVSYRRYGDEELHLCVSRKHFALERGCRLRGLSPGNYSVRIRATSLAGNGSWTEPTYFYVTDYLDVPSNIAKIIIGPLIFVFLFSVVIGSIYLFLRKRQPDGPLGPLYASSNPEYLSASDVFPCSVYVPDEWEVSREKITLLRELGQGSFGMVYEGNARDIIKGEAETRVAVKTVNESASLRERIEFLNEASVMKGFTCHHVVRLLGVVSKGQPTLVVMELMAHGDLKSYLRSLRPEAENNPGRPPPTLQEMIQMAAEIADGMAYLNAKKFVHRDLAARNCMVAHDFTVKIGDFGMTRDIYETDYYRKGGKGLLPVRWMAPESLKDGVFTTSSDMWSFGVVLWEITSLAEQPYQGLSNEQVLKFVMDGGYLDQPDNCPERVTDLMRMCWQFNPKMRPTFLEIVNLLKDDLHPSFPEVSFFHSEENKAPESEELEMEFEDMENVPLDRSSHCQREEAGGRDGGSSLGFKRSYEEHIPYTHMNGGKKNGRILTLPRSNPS

KIT(L576P) = target: T4, KIT(L576P) (Homo sapiens, UniProt P10721, L576P); experiment: KINOMEscan ScanTK; type: binding
T4 construct: purchased Eurofins DiscoverX KINOMEscan (scanTK)

EPHA2 = target: T5, EPHA2 (Homo sapiens, UniProt P29317); experiment: KINOMEscan ScanTK; type: binding
T5 construct: purchased Eurofins DiscoverX KINOMEscan (scanTK)
T5 sequence (P29317 24-976): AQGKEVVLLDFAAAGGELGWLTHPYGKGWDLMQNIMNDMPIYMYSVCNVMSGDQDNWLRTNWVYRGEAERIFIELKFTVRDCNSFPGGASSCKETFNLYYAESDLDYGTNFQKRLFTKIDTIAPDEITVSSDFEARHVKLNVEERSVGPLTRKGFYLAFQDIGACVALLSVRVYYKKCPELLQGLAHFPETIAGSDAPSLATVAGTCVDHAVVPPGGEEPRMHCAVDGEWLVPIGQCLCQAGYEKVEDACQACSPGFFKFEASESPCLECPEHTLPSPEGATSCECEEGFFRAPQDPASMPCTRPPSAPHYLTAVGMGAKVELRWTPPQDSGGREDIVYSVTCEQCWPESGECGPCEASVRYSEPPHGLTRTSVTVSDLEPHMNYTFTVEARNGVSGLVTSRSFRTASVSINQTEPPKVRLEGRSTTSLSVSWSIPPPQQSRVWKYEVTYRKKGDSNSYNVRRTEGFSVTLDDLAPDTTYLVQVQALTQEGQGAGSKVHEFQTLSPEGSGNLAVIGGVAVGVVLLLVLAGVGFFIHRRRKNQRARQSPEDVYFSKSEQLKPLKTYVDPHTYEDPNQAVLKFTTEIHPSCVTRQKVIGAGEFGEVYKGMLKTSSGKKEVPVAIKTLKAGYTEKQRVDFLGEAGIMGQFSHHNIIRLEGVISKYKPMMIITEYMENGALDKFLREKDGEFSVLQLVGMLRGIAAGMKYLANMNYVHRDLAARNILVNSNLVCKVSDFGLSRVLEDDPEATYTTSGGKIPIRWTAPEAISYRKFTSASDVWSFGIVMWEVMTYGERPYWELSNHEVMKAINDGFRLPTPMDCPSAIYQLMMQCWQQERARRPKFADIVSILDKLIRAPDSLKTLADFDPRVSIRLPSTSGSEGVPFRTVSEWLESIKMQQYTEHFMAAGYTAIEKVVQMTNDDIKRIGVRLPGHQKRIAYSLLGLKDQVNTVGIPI

FLT3(ITD,F691L) = experiment: KINOMEscan ScanTK; type: binding
RET(M918T) = target: T6, RET(M918T) (Homo sapiens, UniProt P07949, M918T); experiment: KINOMEscan ScanTK; type: binding
T6 construct: purchased Eurofins DiscoverX KINOMEscan (scanTK)

YES = target: T7, YES (Homo sapiens, UniProt P07947); experiment: KINOMEscan ScanTK; type: binding
T7 construct: purchased Eurofins DiscoverX KINOMEscan (scanTK)

EPHB6 = target: T8, EPHB6 (Homo sapiens, UniProt O15197); experiment: KINOMEscan ScanTK; type: binding
T8 construct: purchased Eurofins DiscoverX KINOMEscan (scanTK)
T8 sequence (O15197 32-1021): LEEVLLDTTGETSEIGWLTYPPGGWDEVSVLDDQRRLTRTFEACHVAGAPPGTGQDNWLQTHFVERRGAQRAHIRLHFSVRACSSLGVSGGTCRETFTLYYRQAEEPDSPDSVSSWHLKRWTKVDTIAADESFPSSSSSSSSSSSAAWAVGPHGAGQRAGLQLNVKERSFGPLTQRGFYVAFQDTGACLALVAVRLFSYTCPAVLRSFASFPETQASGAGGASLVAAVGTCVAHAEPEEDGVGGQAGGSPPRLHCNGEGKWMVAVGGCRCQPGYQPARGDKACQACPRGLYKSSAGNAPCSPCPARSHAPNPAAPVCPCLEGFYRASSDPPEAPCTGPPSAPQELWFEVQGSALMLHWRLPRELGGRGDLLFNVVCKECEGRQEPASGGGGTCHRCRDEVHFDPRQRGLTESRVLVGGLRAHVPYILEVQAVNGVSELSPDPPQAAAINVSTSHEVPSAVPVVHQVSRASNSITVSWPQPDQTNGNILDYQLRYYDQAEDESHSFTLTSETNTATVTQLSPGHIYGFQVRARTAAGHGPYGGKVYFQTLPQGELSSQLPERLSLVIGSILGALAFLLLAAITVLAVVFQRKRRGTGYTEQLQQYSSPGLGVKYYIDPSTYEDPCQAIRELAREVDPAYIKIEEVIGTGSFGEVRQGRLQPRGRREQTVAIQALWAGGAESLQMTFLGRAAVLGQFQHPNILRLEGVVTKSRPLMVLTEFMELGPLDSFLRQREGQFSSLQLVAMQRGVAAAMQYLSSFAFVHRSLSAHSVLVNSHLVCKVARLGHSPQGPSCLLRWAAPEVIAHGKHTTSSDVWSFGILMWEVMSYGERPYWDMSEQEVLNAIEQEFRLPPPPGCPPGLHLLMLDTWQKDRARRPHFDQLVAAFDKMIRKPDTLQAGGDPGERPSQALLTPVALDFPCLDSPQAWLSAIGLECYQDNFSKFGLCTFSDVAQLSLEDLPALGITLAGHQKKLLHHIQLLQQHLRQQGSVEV

[2] = target: T9, ABL1(Y253F)-phosphorylated (Homo sapiens, UniProt P00519, Y253F); experiment: KINOMEscan ScanTK; type: binding
T9 construct: purchased Eurofins DiscoverX KINOMEscan (scanTK)

FYN = target: T10, FYN (Homo sapiens, UniProt P06241); experiment: KINOMEscan ScanTK; type: binding
T10 construct: purchased Eurofins DiscoverX KINOMEscan (scanTK)
T10 sequence (P06241 whole entry): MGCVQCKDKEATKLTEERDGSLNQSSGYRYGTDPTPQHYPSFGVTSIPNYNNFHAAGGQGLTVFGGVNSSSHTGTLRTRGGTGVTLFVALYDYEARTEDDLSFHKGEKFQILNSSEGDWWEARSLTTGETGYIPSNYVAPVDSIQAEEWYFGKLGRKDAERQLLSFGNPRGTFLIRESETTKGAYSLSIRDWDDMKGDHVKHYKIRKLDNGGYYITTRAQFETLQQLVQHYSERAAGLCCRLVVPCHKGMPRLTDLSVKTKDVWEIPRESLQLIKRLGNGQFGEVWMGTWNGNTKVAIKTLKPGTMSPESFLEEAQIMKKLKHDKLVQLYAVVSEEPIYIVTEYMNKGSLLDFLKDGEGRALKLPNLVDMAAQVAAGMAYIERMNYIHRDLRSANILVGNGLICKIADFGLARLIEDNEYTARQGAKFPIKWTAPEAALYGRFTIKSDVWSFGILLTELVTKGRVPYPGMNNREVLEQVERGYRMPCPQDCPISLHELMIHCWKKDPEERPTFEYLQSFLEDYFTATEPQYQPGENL

[3] = target: T11, ABL1(F317L)-nonphosphorylated (Homo sapiens, UniProt P00519, F317L); experiment: KINOMEscan ScanTK; type: binding
T11 construct: purchased Eurofins DiscoverX KINOMEscan (scanTK)

FGFR1 = target: T12, FGFR1 (Homo sapiens, UniProt P11362); experiment: KINOMEscan ScanTK; type: binding
T12 construct: purchased Eurofins DiscoverX KINOMEscan (scanTK)
T12 sequence (P11362 22-822): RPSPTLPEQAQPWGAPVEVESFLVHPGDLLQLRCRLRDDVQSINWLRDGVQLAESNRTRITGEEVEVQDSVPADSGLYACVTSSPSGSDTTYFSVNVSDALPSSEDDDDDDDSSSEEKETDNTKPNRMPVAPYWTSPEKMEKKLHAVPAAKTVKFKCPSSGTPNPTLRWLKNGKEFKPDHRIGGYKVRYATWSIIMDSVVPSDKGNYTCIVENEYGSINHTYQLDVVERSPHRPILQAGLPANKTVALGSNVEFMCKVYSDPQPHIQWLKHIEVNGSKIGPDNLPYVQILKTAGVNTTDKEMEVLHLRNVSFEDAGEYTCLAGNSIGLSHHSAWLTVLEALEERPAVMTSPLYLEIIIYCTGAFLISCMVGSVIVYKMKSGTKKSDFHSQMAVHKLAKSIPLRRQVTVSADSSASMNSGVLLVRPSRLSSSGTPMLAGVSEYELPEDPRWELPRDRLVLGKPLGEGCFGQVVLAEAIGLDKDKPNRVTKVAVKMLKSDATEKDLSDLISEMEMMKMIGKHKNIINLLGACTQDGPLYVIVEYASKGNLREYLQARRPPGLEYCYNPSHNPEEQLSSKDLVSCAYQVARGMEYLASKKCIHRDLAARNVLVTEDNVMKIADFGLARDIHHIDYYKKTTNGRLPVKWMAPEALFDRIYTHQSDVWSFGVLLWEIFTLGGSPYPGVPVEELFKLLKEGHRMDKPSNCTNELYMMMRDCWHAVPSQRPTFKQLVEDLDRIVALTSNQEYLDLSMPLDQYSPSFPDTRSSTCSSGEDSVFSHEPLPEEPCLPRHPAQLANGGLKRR

CSF1R = target: T13, CSF1R (Homo sapiens, UniProt P07333); experiment: KINOMEscan ScanTK; type: binding
T13 construct: purchased Eurofins DiscoverX KINOMEscan (scanTK)

FGFR3 = target: T14, FGFR3 (Homo sapiens, UniProt P22607); experiment: KINOMEscan ScanTK; type: binding
T14 construct: purchased Eurofins DiscoverX KINOMEscan (scanTK)

KIT(D816V) = target: T15, KIT(D816V) (Homo sapiens, UniProt P10721, D816V); experiment: KINOMEscan ScanTK; type: binding
T15 construct: purchased Eurofins DiscoverX KINOMEscan (scanTK)

FAK = target: T16, FAK (Homo sapiens, UniProt Q05397); experiment: KINOMEscan ScanTK; type: binding
T16 construct: purchased Eurofins DiscoverX KINOMEscan (scanTK)
T16 sequence (Q05397 whole entry): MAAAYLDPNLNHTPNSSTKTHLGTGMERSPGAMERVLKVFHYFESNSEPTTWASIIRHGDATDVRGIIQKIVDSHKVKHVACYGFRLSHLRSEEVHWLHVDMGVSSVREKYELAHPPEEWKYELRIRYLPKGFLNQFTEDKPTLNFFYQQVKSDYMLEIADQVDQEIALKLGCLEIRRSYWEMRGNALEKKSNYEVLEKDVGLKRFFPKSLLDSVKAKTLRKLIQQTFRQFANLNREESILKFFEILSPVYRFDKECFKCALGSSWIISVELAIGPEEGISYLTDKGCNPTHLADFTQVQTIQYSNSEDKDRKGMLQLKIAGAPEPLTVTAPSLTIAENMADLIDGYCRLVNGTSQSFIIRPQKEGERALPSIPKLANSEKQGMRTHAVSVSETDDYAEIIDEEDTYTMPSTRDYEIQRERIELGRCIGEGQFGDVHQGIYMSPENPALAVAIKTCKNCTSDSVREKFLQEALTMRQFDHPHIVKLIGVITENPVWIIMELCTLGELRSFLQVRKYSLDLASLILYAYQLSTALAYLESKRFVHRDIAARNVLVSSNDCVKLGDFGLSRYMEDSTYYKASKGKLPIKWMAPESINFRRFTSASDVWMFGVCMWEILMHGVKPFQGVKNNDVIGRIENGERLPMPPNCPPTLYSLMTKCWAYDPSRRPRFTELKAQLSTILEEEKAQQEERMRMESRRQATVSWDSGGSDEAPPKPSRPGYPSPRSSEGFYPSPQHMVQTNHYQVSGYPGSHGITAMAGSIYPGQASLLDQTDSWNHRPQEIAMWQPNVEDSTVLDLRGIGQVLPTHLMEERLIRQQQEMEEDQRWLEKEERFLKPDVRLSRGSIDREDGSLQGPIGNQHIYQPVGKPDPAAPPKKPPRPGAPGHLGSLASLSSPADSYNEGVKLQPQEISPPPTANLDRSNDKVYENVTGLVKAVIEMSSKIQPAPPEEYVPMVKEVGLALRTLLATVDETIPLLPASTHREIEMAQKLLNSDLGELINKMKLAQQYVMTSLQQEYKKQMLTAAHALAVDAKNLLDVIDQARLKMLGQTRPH

[4] = target: JAK3, catalytic domain (795–1124) (Homo sapiens, UniProt P52333); experiment: PhosphoSens enzymatic IC50 (AssayQuant)
Chain of JAK3, catalytic domain (795–1124) (P52333 795-1124): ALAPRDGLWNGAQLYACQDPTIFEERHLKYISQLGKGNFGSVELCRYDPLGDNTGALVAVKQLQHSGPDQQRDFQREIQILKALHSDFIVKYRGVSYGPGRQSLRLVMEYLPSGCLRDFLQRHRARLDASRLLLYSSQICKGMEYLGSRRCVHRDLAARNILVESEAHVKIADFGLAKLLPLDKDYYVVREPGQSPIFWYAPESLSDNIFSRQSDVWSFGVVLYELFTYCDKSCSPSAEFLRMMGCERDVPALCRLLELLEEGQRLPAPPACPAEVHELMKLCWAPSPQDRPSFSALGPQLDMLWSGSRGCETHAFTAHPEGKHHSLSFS
Description: Biochemical enzymatic IC50 data were generated by AssayQuant Technologies (Marlborough, MA) using the PhosphoSens Platform. […] Reaction rate versus log [inhibitor concentration] data were fitted to the four-parameter logistic equation [drawing 1]

[5] = @1000nM, read-out: % difference (compound - Ib %Control)

**Q.** Which results are given for `CNC(=O)c1cnc(S(C)(=O)=O)nc1N1CCCC(n2nc(-c3ccc(Oc4ccccc4)cc3)c3c(N)ncnc32)C1` (stereo not drawn) [Compound 8d, 4-(3-(4-Amino-3-(4-phenoxyphenyl)-1H-pyrazolo[3,4-d]pyrimidin-1-yl)piperidin-1-yl)-N-methyl-2-(methylsulfonyl)pyrimidine-5-carboxamide]?
**A.** %Control @1000nM (FLT3(ITD)): 94%; % difference (compound - Ib %Control) (FLT3(ITD); @1000nM): 22%; %Control (FLT3(ITD); @1000nM): 94%; difference in %Control from reference Ib at 1 µM [1, 5]: 26%; remaining binding at 1 µM ([1]; @1000nM, read-out: %Control): 90%; remaining binding at 1 µM ([1]; read-out: %Control @1000nM): 90%; remaining binding at 1 µM (VEGFR2; @1000nM, read-out: %Control): 88%; remaining binding at 1 µM (VEGFR2; read-out: %Control @1000nM): 88%; difference in %Control versus compound Ib at 1 µM (INSR; @1000nM): 0%; remaining binding at 1 µM (INSR; @1000nM, read-out: %Control): 100%; remaining binding at 1 µM (INSR; read-out: %Control @1000nM): 100%; difference in %Control versus Ib at 1 µM (KIT(L576P); [5]): 13%; remaining binding at 1 µM (KIT(L576P); @1000nM, read-out: %Control): 45%; remaining binding at 1 µM (KIT(L576P); read-out: %Control @1000nM): 45%; difference in %Control versus compound Ib at 1 µM (EPHA2; @1000nM): -2%; remaining binding at 1 µM (EPHA2; @1000nM, read-out: %Control): 98%; remaining binding at 1 µM (EPHA2; read-out: %Control @1000nM): 98%; %Control @1000nM (FLT3(ITD,F691L)): 100%; % difference (compound - Ib %Control) (FLT3(ITD,F691L); @1000nM): 0%; %Control (FLT3(ITD,F691L); @1000nM): 100%; remaining binding at 1 µM (RET(M918T); @1000nM, read-out: %Control): 32%; remaining binding at 1 µM (RET(M918T); read-out: %Control @1000nM): 32%; remaining binding at 1 µM (YES; @1000nM, read-out: %Control): 11%; remaining binding at 1 µM (YES; read-out: %Control @1000nM): 11%; difference in %Control versus compound Ib at 1 µM (EPHB6; @1000nM): 16%; remaining binding at 1 µM (EPHB6; @1000nM, read-out: %Control): 34%; remaining binding at 1 µM (EPHB6; read-out: %Control @1000nM): 34%; difference in %Control from compound Ib at 1 µM ([2]; @1000nM): 3%; remaining binding at 1 µM ([2]; @1000nM, read-out: %Control): 80%; remaining binding at 1 µM ([2]; read-out: %Control @1000nM): 80%; difference in % of control versus compound Ib at 1 µM (FYN; @1000nM): 5.4%; remaining binding at 1 µM (FYN; @1000nM, read-out: %Control): 15%; remaining binding at 1 µM (FYN; read-out: %Control @1000nM): 15%; difference in % of control binding versus compound Ib at 1 µM ([3]; @1000nM): 22%; remaining binding at 1 µM ([3]; @1000nM, read-out: %Control): 54%; remaining binding at 1 µM ([3]; read-out: %Control @1000nM): 54%; difference in %Control from compound Ib at 1 µM (FGFR1; @1000nM): 45%; remaining binding at 1 µM (FGFR1; @1000nM, read-out: %Control): 78%; remaining binding at 1 µM (FGFR1; read-out: %Control @1000nM): 78%; difference in %Control versus compound Ib at 1 µM (CSF1R; @1000nM): 19%; remaining binding at 1 µM (CSF1R; @1000nM, read-out: %Control): 99%; remaining binding at 1 µM (CSF1R; read-out: %Control @1000nM): 99%; difference in %Control versus compound Ib at 1 µM (FGFR3; @1000nM): 51%; remaining binding at 1 µM (FGFR3; @1000nM, read-out: %Control): 99%; remaining binding at 1 µM (FGFR3; read-out: %Control @1000nM): 99%; remaining binding at 1 µM (KIT(D816V); @1000nM, read-out: %Control): 84%; remaining binding at 1 µM (KIT(D816V); read-out: %Control @1000nM): 84%; difference in %Control versus compound Ib at 1 µM (FAK; @1000nM): 0%; remaining binding at 1 µM (FAK; @1000nM, read-out: %Control): 100%; remaining binding at 1 µM (FAK; read-out: %Control @1000nM): 100%; IC50 [4]: > 1 µM
